According to PMC7466059, “Synthesis and Ex Vivo Trans-Corneal Permeation of Penetratin Analogues as Ophthalmic Carriers: Preliminary Results” (Pharmaceutics, 2020):

What was measured:
[1] = Ex vivo trans-corneal permeation, Franz-type diffusion cells; format: in vitro ADME, pig; settings: ex vivo porcine cornea, epithelial side to donor, area 0.2 cm^2; donor 100 µM, 200 µL; donor and receiving solutions PBS pH 7.4; 37 °C, 6 h, hourly sampling; fluorescence 485/535 nm; mean ± sd, n = 3-4
Protocol: Permeation experiments across freshly porcine cornea were performed following a method previously reported. In detail, transparent porcine corneas were isolated from fresh pig eyes (breed: Large White and Landrace; weight: 145–190 kg; age: 10–11 months; sex: female and male; Macello Annoni SpA, Busseto, Italy) and supported by glass Franz-type diffusion cells, having a permeation area of 0.2 cm^2. The epithelial side was in contact with the donor, i.e., 200 µL of aqueous solution containing a peptide: each concentration and solvent are indicated in Table 2. Donor concentrations were selected based on different solubility and analytical sensitivity (see paragraph 2.4 and Table S2). For some peptides, the solubilization was improved by dissolving the raw material using small amount of DMSO (final concentration less than 5% v/v), and then PBS or PBS+0.1% BSA were alternately added.
To fill the receptor compartment, around 4 mL of degassed PBS or PBS+0.1% BSA was used (see Table 2), being kept at 37 °C and maintained under magnetic stirring to avoid any boundary layer effect. The presence of 0.1% BSA aids in preventing peptides aggregation. Permeation experiments lasted 6 h, and for quantification purposes, 200 µL of the receiving solution were collected every hour and reintegrated with fresh medium. Each condition was replicated between 3 and 4 times, using cornea isolated from different animals.
Permeation samples were analysed without preliminary separation by fluorescence, using a Spark 10M microplate reader (Tecan Trading AG, Switzerland); excitation and emission wavelengths were 485 nm and 535 nm, respectively. Standard solutions were prepared in PBS pH 7.4 or in PBS containing BSA 0.1%. RSD% (relative standard deviation %) was lower than 10%, while ER% (relative error %) resulted lower than 15%.
The amount of CPP permeated across the cornea (nmol/cm^2) is plotted against time (hour): the slope of the regression line at steady state represents the trans-corneal flux J (nmol/cm^2 h). The apparent permeability coefficient Papp (cm/s) is then calculated as Equation (1): Papp = J/c(1) being c (µM) the concentration of the donor solution. Papp allows for a direct comparison among permeants studied using different donor concentrations.

[2] = parameters: method as in PMID 24521351, PMID 28927928; settings: literature report; cited from earlier work

For `CC[C@H](C)[C@H](NC(=O)[C@H](CCCCN)NC(=O)[C@@H](NC(=O)[C@H](CCC(N)=O)NC(=O)[C@H](CCCNC(=N)N)NC(=O)c1ccc2c(c1)C(=O)OC21c2ccc(O)cc2Oc2cc(O)ccc21)[C@@H](C)CC)C(=O)N[C@@H](Cc1c[nH]c2ccccc12)C(=O)N[C@@H](Cc1ccccc1)C(=O)N[C@@H](CCC(N)=O)C(=O)N[C@@H](CC(N)=O)C(=O)N[C@@H](CCCNC(=N)N)C(=O)N[C@@H](CCCNC(=N)N)C(=O)N[C@@H](CCSC)C(=O)N[C@@H](CCCCN)C(=O)N[C@@H](Cc1c[nH]c2ccccc12)C(=O)N[C@@H](CCCCN)C(=O)N[C@@H](CCCCN)C(N)=O` [reference compound], the “Papp (apparent permeability coefficient)” value [1] is listed as 4.54 ± 2.01 10^−6 cm/s and the ocular toxicity [2] is listed as “lacking in ocular toxicity”.
